Measured values published in patent publication US20120316342A1, “THERAPEUTIC AGENT FOR HEPATITIS C” (priority 2010, published 2012).

Key:
[1] = system: #50-1 (subgenomic replion) cells; assay: Anti-HCV activity using subgenomic replicon cells (HCV genomic RNA, real-time RT-PCR); assay type: cell-based; conditions: for EC50: HCV genomic RNA level, 3 days; for anti-HCV activity (in words): Table 1
Method: (§1) The 70% confluent #50-1 (subgenomic replion) cells or NNC #2 (full-length replicon) cells (Ishii et al., J. Virol., 2006, vol. 80, pp. 4510-4520) were dispersed in a culture bottle with the aid of trypsin, and the resulting dispersion was resuspended in a high-glucose Dulbecco's modified Eagle medium (DMEM) containing 10% FCS and 1 mg/ml G418 (Sigma) (see FIGS. 1 and 2). The cell suspension adjusted at 5×10^4 cells/ml with the use thereof was added to wells of a 96-well culture plate at 100 μl/well (the final cell density in each well: […]), and culture was conducted at 37° C. Supernatants of culture media were removed from wells of the plate on the following day, 200 μl each of the solutions of test compounds appropriately diluted with a G418-free culture solution were added, and culture was further continued. Samples were prepared from cells in each well 3 days later with the use of the TaqMan® Gene Expression Cell-to-CT® (Applied Biosystems). Reverse transcription was carried out in accordance with the protocols for the ABI 7500 PCR systems (Applied Biosystems) at 37° C. for 60 minutes, 95° C. for 5 minutes, and retained at 4° C. Real-time PCR was carried out in accordance with the protocols for the ABI 7500 real-time PCR systems (Applied Biosystems) at 50° C. for 2 minutes, 95° C. for 10 minutes, 40 cycles at 95° C. for 15 seconds, and 60° C. for 1 minute.
(§2) In accordance with the method mentioned above, the level of the HCV genomic RNA and, as the internal standard, the level of mRNA of glyceraldehyde-3-phosphate dehydrogenase (GAPDH) (a house keeping gene of the host cells) were assayed, and a percentage (%) relative to the level of RNA of a control group to which the test compound was not administered was determined. The dose-response relationship of the test compound was analyzed based on the measured level of the HCV genomic RNA to determine EC50, and the dose-response relationship of the test compound was analyzed based on the measured level of GAPDH RNA to determine CC50. The term “EC50” and “CC50” used herein refers to 50% effective concentration (μM) and 50% cytotoxic concentration (μM), respectively.

[2] = Cytotoxicity in subgenomic replicon cells (GAPDH mRNA, real-time RT-PCR); assay type: cell-based; conditions: human, #50-1 (subgenomic HCV replicon) cells, GAPDH RNA level
Method: as §1, §2

[3] = system: Subgenomic HCV RNA replicon cells (LucNeo#2) having a luciferase gene; assay: Anti-HCV activity using replicon cells (luciferase assay); assay type: cell-based; conditions: Hepatitis C virus, 72 h
Method: Subgenomic HCV RNA replicon cells (LucNeo#2, Goto et al., Biochem. Biophys. Res. Commun., 2006, vol. 343, pp. 879-884) having a luciferase gene were suspended in a Dulbecco's modified Eagle medium (DMEM) containing 10% FBS and 1 mg/ml G418 (Sigma). The cells were incubated for 24 hours and then cultured in G418-free fresh media each containing test compounds at various concentrations for 3 days. In order to perform luciferase assays, the cells were washed with PBS and treated with a lysate for 10 minutes with intermittent agitation. A cell lysate (25 μl) was transferred to a white microtiter plate. Luciferase assay reagents (100 μl, Promega, Tokyo) were added to each well and the luciferase activity was measured with a luminometer.
(§3) Based on the luciferase assay results, the HCV genomic RNA level was measured, and a percentage (%) relative to the level of RNA of a control group to which the test compound was not administered was determined. Based on the results of tetrazolium staining, cell survival rates (%) of the group to which the test compound had been administered and of a control group were determined. The dose-response relationship of the test compound was analyzed based on the results of quantitative luciferase assays to determine EC50(μM), and the dose-response relationship of the test compound was analyzed based on the results of tetrazolium staining to determine CC50.

[4] = Cytotoxicity (cell survival rate) by tetrazolium staining in luciferase replicon cells; assay type: cell-based; conditions: human, subgenomic HCV RNA replicon cells (LucNeo#2), LucNeo#2 subgenomic replicon cells
Method: A tetrazolium staining solution (10 μl, Seikagaku Corporation, Tokyo) was added to each well in order to examine cytotoxicity (a cell survival rate). After the cells were incubated for 1 hour, the absorbance at the characteristic absorption wavelength (450 nm) was measured with the use of a microplate reader.
as §3

HCV replicon cells = conditions: inhibiting the replication of the HCV genome, Non-Patent Document 8; cited from earlier work
[5] = system: #50-1 (subgenomic replion) cells; assay: Cytotoxicity in subgenomic replicon cells (GAPDH mRNA, real-time RT-PCR); assay type: cell-based; conditions: GAPDH RNA level, 3 days
Method: as §1, §2

[6] = system: NNC #2 (full-length replicon) cells; assay: Anti-HCV activity using full-length replicon cells (HCV genomic RNA, real-time RT-PCR); assay type: cell-based; conditions: for anti-HCV activity (in words): FIGS. 3 to 6; for EC50: HCV genomic RNA level, 3 days
Method: as §1, §2

[7] = system: NNC #2 (full-length replicon) cells; assay: Cytotoxicity in full-length replicon cells (GAPDH mRNA, real-time RT-PCR); assay type: cell-based; conditions: GAPDH RNA level, 3 days
Method: (§4) The 70% confluent #50-1 (subgenomic replion) cells or NNC #2 (full-length replicon) cells (Ishii et al., J. Virol., 2006, vol. 80, pp. 4510-4520) were dispersed in a culture bottle with the aid of trypsin, and the resulting dispersion was resuspended in a high-glucose Dulbecco's modified Eagle medium (DMEM) containing 10% FCS and 1 mg/ml G418 (Sigma) (see FIGS. 1 and 2). The cell suspension adjusted at 5×10^4 cells/ml with the use thereof was added to wells of a 96-well culture plate at 100 μl/well (the final cell density in each well: […]), and culture was conducted at 37° C. […]
(§5) In accordance with the method mentioned above, the level of the HCV genomic RNA and, as the internal standard, the level of mRNA of glyceraldehyde-3-phosphate dehydrogenase (GAPDH) (a house keeping gene of the host cells) were assayed, and a percentage (%) relative to the level of RNA of a control group to which the test compound was not administered was determined. The dose-response relationship of the test compound was analyzed based on the measured level of the HCV genomic RNA to determine EC50, and the dose-response relationship of the test compound was analyzed based on the measured level of GAPDH RNA to determine CC50. […]

[8] = as above; assay type: cell-based; conditions: human, NNC #2 (full-length HCV replicon) cells, GAPDH RNA level
Method: as §4, §5

SMILES | EC50 ([1]; Hepatitis C virus, 72 h) | CC50 at 3 days [2] | anti-HCV activity (in words) [1] | CC50 [5] | other results
CCCCn1c(=O)c2ccccc2c2cc3c(cc21)C(C)(C)CCC3(C)C [MN256, 6-butyl-8,9,10,11-tetrahydro-8,8,11,11-tetramethylbenzo[2,3-b]phenanthridin-5(6H)-one] | 5 µM | 31.7 µM |  |  | 
CCCCn1c(=O)c2ccccc2c2cc(C(C)(C)C)ccc21 [MN325, 5-butyl-2-tert-butylphenanthridin-6(5H)-one] | 6.1 µM | 34.4 µM |  |  | 
CCCCn1c(=O)c2ccccc2c2c(OC)c(C(O)(C(F)(F)F)C(F)(F)F)ccc21 [KZ34, 5-butyl-2-(1′,1′,1′,3′,3′,3′-hexafluoro-2′-hydroxypropan-2-yl)-1-methoxy-phenanthridin-6(5H)-one] |  |  |  |  | EC50 [3]: 7.2 µM; CC50 at 3 days [4]: 25.3 µM
CCCCn1c(=O)c2ccccc2c2cc3ccccc3cc21 [MN313-B, 6-butylbenzo[b]phenanthridin-5(6H)-one] | 3.2 µM | 6.3 µM | very high degree of anti-HCV activity at non-cytotoxic concentrations |  | 
COc1cc(NC(=O)Nc2cccc(CNC(=O)O[C@H]3CCOC3)c2)ccc1-c1cnco1 [VX497] |  |  |  |  | IC50 (HCV replicon cells): 0.5 µM
CCCCn1c(=O)c2ccccc2c2c3ccccc3ccc21 [MN313-A, 6-butylbenzo[a]phenanthridin-5(6H)-one] | 29.1 µM |  | very high degree of anti-HCV activity at non-cytotoxic concentrations | 44.5 µM | 
CCCCn1c(=O)c2c3ccccc3ccc2c2ccccc21 [MN306, 6-butylbenzo[i]phenanthridin-5(6H)-one] | 29.9 µM | > 40 µM | very high degree of anti-HCV activity at non-cytotoxic concentrations |  | 
CCCCn1c(=O)c2ccccc2c2cc(C(O)(C(F)(F)F)C(F)(F)F)ccc21 [AA-24, 2-(1′,1′,1′,3′,3′,3′-hexafluoro-2′-hydroxypropan-2′-yl)-5-butyl-phenanthridin-6(5H)-one] |  |  |  | 20.5 µM | anti-HCV activity (in words) [6]: high degree of anti-HCV activity; EC50 [6]: 2.8 µM; CC50 [7]: 11.9 µM; EC50 [1]: 4 µM
CCCCn1c(=O)c2cc3ccccc3cc2c2ccccc21 [MN314-B, 5-butylbenzo[j]phenanthridin-6(5H)-one] |  | 33.5 µM | very high degree of anti-HCV activity at non-cytotoxic concentrations | > 40 µM | 
CCCCn1c(=O)c2ccccc2c2ccc3ccccc3c21 [MN305, 5-butylbenzo[c]phenanthridin-6(5H)-one] | 19.5 µM |  |  | 24.3 µM | 
O=c1c2ccccc2c2cc(C(O)(C(F)(F)F)C(F)(F)F)ccc2n1Cc1ccccc1 [AA-04, 2-(1′,1′,1′,3′,3′,3′-hexafluoro-2′-hydroxypropan-2′-yl)-5-benzylphenanthridin-6(5H)-one] |  |  |  |  | anti-HCV activity (in words) [6]: high degree of anti-HCV activity
CCCCn1c(=O)c2ccc3ccccc3c2c2ccccc21 [MN314-A, 5-butylbenzo[k]phenanthridin-6(5H)-one] | > 31.4 µM |  |  | 31.4 µM | 
CCCCn1c(=O)c2ccccc2c2cc(C(C)C)ccc21 [PN-iPr, 5-butyl-2-isopropylphenanthridin-6(5H)-one] | 4 µM | 20.5 µM |  |  | EC50 ([6]; Hepatitis C virus, NNC2, 72 h): 16.4 µM; CC50 at 3 days [8]: 27.7 µM
